Data from patent US20220226293A1, “TREATMENTS OF ANGIOEDEMA” (KALVISTA PHARMACEUTICALS LIMITED, priority 2019, published 2022).

How the values were obtained:
[1] = background, literature and labels; cited from earlier work
purified PKa = purified PKa (Homo sapiens, UniProt P03952); test: Rate of formation of the enzyme-inhibitor complex (Kon); assay type: biochemical
Experimental: The rate of formation of the enzyme-inhibitor complex (Kon) was determined using purified PKa rapidly mixed with a solution containing fluorogenic substrate and a concentration range of inhibitor. The time-dependent establishment of inhibition was then used to calculate the rate of formation of the enzyme-inhibitor complex for each concentration of inhibitor. The Kon was calculated by plotting the rate of inhibition versus the inhibitor concentration. Data in Table 1 are presented in μM^−1 sec^−1.

Human plasma kallikrein = target: T1, Human plasma kallikrein (Homo sapiens, UniProt P03952); test: Plasma kallikrein inhibitory activity in vitro, purified enzyme, fluorogenic substrate; assay type: biochemical; details: 25° C., substrate H-DPro-Phe-Arg-AFC
T1 construct: purchased Protogen
T1 sequence (P03952 391-638 limits assumed): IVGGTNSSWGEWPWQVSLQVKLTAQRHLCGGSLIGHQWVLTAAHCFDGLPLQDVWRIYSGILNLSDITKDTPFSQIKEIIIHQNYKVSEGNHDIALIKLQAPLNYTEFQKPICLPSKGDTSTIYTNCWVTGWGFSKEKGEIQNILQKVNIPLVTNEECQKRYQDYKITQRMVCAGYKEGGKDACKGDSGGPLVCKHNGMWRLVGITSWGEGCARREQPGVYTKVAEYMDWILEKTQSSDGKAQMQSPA
T1 sequence (P03952 20-390 partner limits assumed): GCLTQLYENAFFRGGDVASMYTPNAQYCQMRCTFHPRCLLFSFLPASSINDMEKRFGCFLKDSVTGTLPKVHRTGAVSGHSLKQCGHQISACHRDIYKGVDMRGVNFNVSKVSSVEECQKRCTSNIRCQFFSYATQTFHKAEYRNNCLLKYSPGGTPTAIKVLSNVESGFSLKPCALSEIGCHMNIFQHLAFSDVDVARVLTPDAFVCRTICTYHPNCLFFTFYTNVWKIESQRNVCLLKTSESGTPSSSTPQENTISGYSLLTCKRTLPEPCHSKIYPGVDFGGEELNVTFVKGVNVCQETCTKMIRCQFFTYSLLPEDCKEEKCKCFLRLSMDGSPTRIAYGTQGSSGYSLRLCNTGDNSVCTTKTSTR
Experimental: Human plasma kallikrein (Protogen) was incubated at 25° C. with the fluorogenic substrate H-DPro-Phe-Arg-AFC and various concentrations of the test compound. Residual enzyme activity (initial rate of reaction) was determined by measuring the change in […] at 410 nm and the IC50 value for the test compound was determined.

[2] = target: T2, plasma kallikrein-kinin pathway enzyme activity in pre-activated plasma (Homo sapiens, UniProt P03952); test: Inhibition of enzyme activity of pre-activated undiluted plasma (compound added after DXS); assay type: biochemical; details: added 3.5 minutes post DXS; compound 300, 1000, 3000 nM; C1-INH 3000 nM
T2 construct: from tissue
T2 sequence (P03952 391-638 limits assumed): as the sequence (P03952 391-638 limits assumed) above
T2 sequence (P03952 20-390 partner limits assumed): as the sequence (P03952 20-390 partner limits assumed) above
Experimental: The ability of the compound to inhibit the enzyme activity of pre-activated plasma was assessed by addition of the compound after DXS stimulation. Aliquots of plasma (20 μL) were mixed with a 2.5 μL solution containing […] fluorogenic substrate (H-DPro-Phe-Arg-AFC) and a 2.5 μL solution of dextran sulphate (DXS; 100 μg/mL) which acted as an activator of the plasma kallikrein-kinin pathway. Enzyme activity was immediately measured by monitoring the accumulation of fluorescence liberated from the substrate by substrate cleavage over 16 minutes. At 3.5 minutes post DXS addition 5 μl of inhibitors or water control are were added into each well. The compound was tested at concentrations of 300, 1000 and 3000 nM. C1-INH at a concentration of 3000 nM and vehicle controls were also included.

[3] = target: PKa in DXS-activated plasma (Homo sapiens, UniProt P03952); test: Catalytic activity of PKa in dextran sulfate-activated plasma; assay type: biochemical; details: read-out: IC50 plasma enzyme
Sequence of PKa in DXS-activated plasma (P03952 391-638 limits assumed): as the sequence (P03952 391-638 limits assumed) above
Sequence of PKa in DXS-activated plasma (P03952 20-390 partner limits assumed): as the sequence (P03952 20-390 partner limits assumed) above
Experimental: Catalytic activity of PKa in dextran sulfate-activated (DXS, Sigma; 10 μg/ml) plasma (1:4 diluted or undiluted, VisuCon-F control plasma, Affinity Biologicals Inc) was determined by the time-dependent hydrolysis of fluorogenic substrate.

HK cleavage = test: Phase 1 SAD: ex vivo DXS-stimulated cleavage of HK, Wes capillary immunoassay; parameters: species or system human; details: 600 mg orally in capsules, up to 12 hrs post-dose
Experimental: DXS-stimulated cleavage of HK, in undiluted plasma was quantified by capillary-based immunoassay on the Wes System (ProteinSimple) using monoclonal anti-HK antibody and chemiluminescence-based detection. Plasma kallikrein mediated HK cleavage in undiluted citrated human plasma was induced by contact system activation with DXS (6.25 μg/ml) at 4° C. in selected samples from the SAD phase.

[4] = tested on: HK cleavage in undiluted citrated human plasma; test: Protection of HK from PKa-mediated cleavage in DXS-stimulated HAE and control plasma (WES immunoassay); assay type: biochemical; details: HAE and healthy control plasma stimulated with dextran sulfate
Experimental: High molecular weight kininogen (HK) cleavage in undiluted citrated human plasma was induced by contact system activation with dextran sulfate (DXS, Sigma #31395-10G; 6.25 μg/ml) on wet ice. […] HAE plasma was obtained from HAE subjects (n=6) and C1-inhibitor deficiency was confirmed by western blotting. Protection of HK from PKa mediated cleavage in DXS-stimulated whole undiluted plasma was then determined by two methods; traditional western blotting and a semi-automated capillary-based immunoassay.
Capillary-based immunoassay on the WES System (ProteinSimple):
Preparation of samples: Combine one part 5× fluorescent master mix with four parts of the 1:200 plasma sample. Vortex to mix. Heat the samples+fluorescent master mix and the biotinylated ladder at 95° C. for 5 minutes, vortex, and load onto the WES plate. Monoclonal anti-human HK antibody was used for this chemiluminescence-based detection method using the Wes System (ProteinSimple).
Analysis: Collect the peak area measurement obtained in the Compass software (cbz file) for the full-length HK molecular weight of the respective time-point sample with DXS-induced activation. The peak area is defined as the area calculated for the spectral peak profile for HK. To measure the plasma kallikrein inhibition by the compound, the percent full-length HK detected was calculated.

Factor XII (FXII) = test: Phase 1 SAD: ex vivo DXS-stimulated cleavage of Factor XII / generation of FXIIa, Wes immunoassay; parameters: species or system human; details: 600 mg orally in capsules, up to 12 hrs post-dose
Excerpt: (§1) DXS-stimulated cleavage of plasma prekallikrein and Factor XII (FXII) were quantified by capillary-based immunoassay on the Wes System (ProteinSimple) analogously.

[5] = target: T3, plasma kallikrein catalytic activity (Homo sapiens, UniProt P03952); test: Phase 1 SAD / food effect: ex vivo PKa catalytic activity in DXS-stimulated undiluted plasma
T3 construct: from tissue; host or cells: undiluted plasma of healthy male study participants after oral dosing, stimulated ex vivo with dextran sulfate
T3 sequence (P03952 391-638 limits assumed): as the sequence (P03952 391-638 limits assumed) above
T3 sequence (P03952 20-390 partner limits assumed): as the sequence (P03952 20-390 partner limits assumed) above
Experimental: (§2) This study was a randomized, double-blind, placebo-controlled single ascending dose (SAD) and crossover studies for food effect and capsule/tablet formulations.
PD measurements were determined in dextran sulfate (DXS) stimulated undiluted plasma using a fluorogenic enzyme assay and capillary based HK cleavage immunoassay.
The time until appearance of detectable amidolytic enzyme activity in DXS-stimulated plasma (lag time) was calculated from the catalytic activity assay. The detection sensitivity of the rate of catalytic activity in plasma based on using a Spark (Tecan) fluorimeter is a fluorescence increase to reach 1ΔF unit/sec.

[6] = tested on: HK cleavage in undiluted plasma; test: DXS-activated cleavage of HK in undiluted plasma (immunoblot); assay type: biochemical, human; details: 300 nM PKa inhibitor, 20 min incubation with DXS
Experimental: DXS-activated cleavage of HK in undiluted plasma was performed in the absence or presence of 300 nM PKa inhibitor and quantified by SDS-PAGE gel electrophoresis, using 7.5% Criterion TGX Precast gels (Biorad). Transfer was made onto Immunobilon-FL PVDF membrane. Image analysis was done using the LICOR imaging system. Mouse monoclonal anti-HK antibody (MAB15692, R&D systems) was used for traditional immunoblotting. Data presented as % of HK remaining after 20 min incubation with DXS compared to HK levels in unactivated plasma (Table 1).

[7] = Phase 1 multiple dose study: safety, tolerability, ECG; assay type: in vivo, human; details: healthy adults
Experimental: This is a phase 1, double-blind, placebo-controlled, multiple-dose, multiple-cohort study to evaluate safety and tolerability of the compound as well as of the ECG effects of the compound formulated as 100 mg Film Coated Tablets in healthy adult male and female subjects.
During the study, oral doses of 600 mg of the compound as Film Coated Tablets (six 100 mg tablets) or 6 matching placebo tablets will be administered once every 8 hours (Cohort 1) every 4 hours (Cohort 2), or every 2 hours (Cohort 3 and 4) to healthy adult male and female subjects up to a total dose of 1800 mg. In Cohorts 1, 2 and 3, 6 subjects will receive the compound as 100 mg Film Coated Tablets and 2 subjects will receive the placebo for a total of 8 subjects per cohort. In Cohort 4, 12 subjects will receive the compound as 100 mg Film Coated Tablets and 6 subjects will receive the placebo for a total of 18 subjects.
A Holter monitor will be attached to each subject in order to continuously record ECGs. The monitor will be attached 1 hour before the first dose and will remain attached until after the final blood sample collection. The electrodes for the Holter monitor will be checked by a member of the clinic staff at appropriate intervals to ensure they are attached.

[8] = Phase 1 SAD and food effect study: safety and tolerability; assay type: in vivo, human; details: phase I trial, healthy males
Excerpt: as §2

plasma prekallikrein = test: Phase 1 SAD: ex vivo DXS-stimulated cleavage of plasma prekallikrein, Wes immunoassay; parameters: species or system human; details: 600 mg orally in capsules, up to 12 hrs post-dose
Excerpt: as §1

[9] = Phase 1 SAD: plasma pharmacokinetics (LC MS/MS); assay type: in vivo, human
Experimental: Samples for pharmacokinetic (PK) and PD assessment were taken at repeated intervals over 48 hours.
Plasma samples used for PK assessment were analysed using a validated liquid chromatography tandem mass spectrometry (LC MS/MS) method.

[10] = 3 x 600 mg every 8, 4 or 2 hours

Sequence of purified PKa (P03952 391-638 limits assumed): as the sequence (P03952 391-638 limits assumed) above
Sequence of purified PKa (P03952 20-390 partner limits assumed): as the sequence (P03952 20-390 partner limits assumed) above

N#Cc1cccc([C@@H](NCC2CC2)c2ccc(F)c(NC(=O)c3cc(C(F)(F)F)nn3-c3cccc(CN)c3)c2)c1 [Berotralstat]
reported adverse reactions / risks [1]: higher doses were associated with more gastrointestinal adverse effects

Ecallantide
reported adverse reactions / risks [1]: risk of anaphylactic reactions

C1-INH: C1 inhibitor (C1-INH, Sigma Cat #E0518), comparator [Compound C1-INH]
Kon (purified PKa): 40000 M⁻¹ s⁻¹ | IC50 (Human plasma kallikrein): 50 nM | inhibition of enzyme activity after activation of plasma [2]: slower action | IC50 [3]: 1700 nM

COCc1nn(Cc2ccc(Cn3ccccc3=O)cc2)cc1C(=O)NCc1nccc(OC)c1F [Compound of Formula A, N-[(3-fluoro-4-methoxypyridin-2-yl)methyl]-3-(methoxymethyl)-1-({4-[(2-oxopyridin-1-yl)methyl]phenyl}methyl)pyrazole-4-carboxamide]
effect on HK cleavage (HK cleavage): reduces HK cleavage | protection against HK cleavage [4]: dose dependent protection against HK cleavage | effect on generation of FXIIa (Factor XII (FXII)): reduces the generation of FXIIa | lag time (time until appearance of catalytic activity during contact system activation) ([5]; 600 mg dose, tablet formulation): increases the time until appearance of catalytic activity | inhibition at 600 mg ([5]; 600 mg tablet, by 30 minutes, fed and fasted state): > 90% | detectable catalytic activity after prolonged DXS activation ([5]; 600 mg tablet, early time points post-dose): did not display detectable catalytic activity | food effect on pharmacodynamic (PD) profile ([5]; 600 mg tablet, fed and fasted state): no significant food-effect | inhibition at 160 mg ([5]; po, cohort 6 (160 mg oral), between 45 min and 2 hr post-dose): > 90% | inhibition at 300 mg ([5]; po, cohort 7 (300 mg oral), between 20 min and 4 hr post-dose): > 90% | HK protection (% of HK remaining vs unactivated plasma) [6]: 85% | serious adverse events [7, 10]: No serious adverse events were reported | severity of reported adverse events [7, 10]: mild | effects on the studied ECG parameters ([7]; 3 x 600 mg): No clinically relevant effects | serious adverse events [8]: No serious adverse events were reported | tolerability signals [8]: no tolerability signals | effect on PPK cleavage (plasma prekallikrein): reduces PPK cleavage | plasma concentration ([9]; following a dosage amount of at least about 60 mg): at least 500 ng/mL | plasma exposure ([9]; oral capsule, fasted, 5 mg to 600 mg): rapid and dose-dependent plasma exposure

B1: lanadelumab: recombinant fully human IgG1 kappa light chain monoclonal antibody, active substance of Takhzyro® (antibody, chains of the INN, looked up, V domains shown)
VH: EVQLLESGGGLVQPGGSLRLSCAASGFTFSHYIMMWVRQAPGKGLEWVSGIYSSGGITVYADSVKGRFTISRDNSKNTLYLQMNSLRAEDTAVYYCAYRRIGVPRRDEFDIWGQGTMVTVSS
VL: DIQMTQSPSTLSASVGDRVTITCRASQSISSWLAWYQQKPGKAPKLLIYKASTLESGVPSRFSGSGSGTEFTLTISSLQPDDFATYYCQQYNTYWTFGQGTKVEIK
reported adverse reactions / risks [1]: hypersensitivity, injection site pain, injection site erythema, and injection site bruising
